Like-named read-outs stand apart in the source and are kept apart here.
Legend:
[1] = system: Beet Armyworm (Spodoptera exigua, LAPHEG); experiment: Bioassay on Beet Armyworm (BAW), 128-well diet tray assay; assay type: in vivo
Procedure, shortened: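 Second instar larvae were exposed to diet treated at 50 μg/cm^2 for five to seven days at 25° C.; mortality was averaged over eight wells.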

[2] = system: Cabbage Looper (Trichoplusia ni, TRIPNI); experiment: Bioassay on Cabbage Looper (CL), 128-well diet tray assay; assay type: in vivo; settings: Trichoplusia ni
Procedure, shortened: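 Using eight wells per molecule, artificial diet was dosed at 50 μg/cm^2 with compound in 90:10 acetone-water and dried before one to five second-instar larvae were added per well. Covered vented trays were kept at 25° C. with 14:10 light-dark for five to seven days, then per-well percent mortality was recorded and averaged.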

[3] = Species BAW (Beet Armyworm), read-out: BAW (Biological Results, rating)
[4] = Species CL (Cabbage Looper), read-out: CL (Biological Results, rating)
[5] = Beet Armyworm, 128-well diet tray assay, read-out: BAW rating
[6] = Cabbage Looper, 128-well diet tray assay, read-out: CL rating

SMILES	pest or weed control at 50 µg/cm2 [1, 3]	pest or weed control at 50 µg/cm2 [2, 4]	pest or weed control at 50 µg/cm2 [1, 5]	pest or weed control at 50 µg/cm2 [2, 6]
CNc1cc(NC(=O)c2cc(NC(=O)[C@H]3[C@H](c4cc(Cl)cc(Cl)c4)C3(Cl)Cl)ccc2Cl)ccc1C (relative stereo) [F207, trans-2-Chloro-5-(2,2-dichloro-3-(3,5-dichlorophenyl)cyclopropane-1-carboxamido)-N-(4-methyl-3-(methylamino)phenyl)benzamide]	50 to 100%	50 to 100%	–	–
Cc1cc(N(C)C(=O)OC(C)(C)C)ccc1NC(=O)c1cc(NC(=O)[C@H]2[C@H](c3cc(Cl)c(Cl)c(Cl)c3)C2(Cl)Cl)ccc1Cl (relative stereo) [F218, trans-tert-Butyl-(4-(2-chloro-5-(2,2-dichloro-3-(3,4,5-trichlorophenyl)cyclopropane-1-carboxamido)benzamido)-3-methylphenyl)(methyl)carbamate]	50 to 100%	50 to 100%	–	–
Cc1cc(N(C)C(=O)OC(C)(C)C)ccc1N(C)C(=O)c1cc(NC(=O)[C@H]2[C@H](c3cc(Cl)cc(Cl)c3)C2(Cl)Cl)ccc1Cl (relative stereo) [F220, trans-tert-Butyl-(4-(2-chloro-5-(2,2-dichloro-3-(3,5-dichlorophenyl)cyclopropane-1-carboxamido)-N-methylbenzamido)-3-methylphenyl)(methyl)carbamate]	50 to 100%	50 to 100%	–	–
CNc1ccc(N(C)C(=O)c2cc(NC(=O)[C@H]3[C@H](c4cc(Cl)cc(Cl)c4)C3(Cl)Cl)ccc2Cl)c(C)c1 (relative stereo) [F225, trans-2-Chloro-5-(2,2-dichloro-3-(3,5-dichlorophenyl)cyclopropane-1-carboxamido)-N-methyl-N-(2-methyl-4-(methylamino)phenyl)benzamide]	50 to 100%	50 to 100%	–	–
CC(=O)Nc1ccc(NC(=O)c2cc(NC(=O)[C@H]3[C@H](c4cc(Cl)cc(Cl)c4)C3(Cl)Cl)c(Cl)cc2Cl)cc1 (relative stereo) [F255, trans-N-(4-Acetamidophenyl)-2,4-dichloro-5-(2,2-dichloro-3-(3,5-dichlorophenyl)cyclopropane-1-carboxamido)benzamide]	50 to 100%	0 to 50%	–	–
N#Cc1ccc(NC(=O)c2cc(NC(=O)[C@H]3[C@H](c4cc(Cl)cc(Cl)c4)C3(Cl)Cl)ccc2Cl)nc1N (relative stereo) [F292, N-(6-Amino-5-cyanopyridin-2-yl)-2-chloro-5-(trans-2,2-dichloro-3-(3,5-dichlorophenyl)cyclopropane-1-carboxamido)benzamide]	50 to 100%	50 to 100%	–	–
O=C(Nc1ncncc1F)c1cc(NC(=O)[C@H]2[C@H](c3cc(Cl)cc(Cl)c3)C2(Cl)Cl)ccc1Cl (relative stereo) [F318, trans-2-Chloro-5-(2,2-dichloro-3-(3,5-dichlorophenyl)cyclopropane-1-carboxamido)-N-(5-fluoropyrimidin-4-yl)benzamide]	50 to 100%	50 to 100%	–	–
Cc1cc(NC(=O)OC(C)(C)C)ccc1NC(=O)c1cc(NC(=O)[C@H]2[C@H](c3cc(Cl)cc(Br)c3)C2(Cl)Cl)ccc1Cl (relative stereo) [F335, tert-Butyl (4-(5-(trans-3-(3-bromo-5-chlorophenyl)-2,2-dichlorocyclopropane-1-carboxamido)-2-chlorobenzamido)-3-methylphenyl)carbamate]	50 to 100%	50 to 100%	–	–
Cc1cc(N)ccc1NC(=O)c1cc(NC(=O)[C@H]2[C@H](c3ccc(Cl)c(Br)c3)C2(Cl)Cl)ccc1Cl (relative stereo) [F336, N-(4-Amino-2-methylphenyl)-5-(trans-3-(3-bromo-4-chlorophenyl)-2,2-dichlorocyclopropane-1-carboxamido)-2-chlorobenzamide]	50 to 100%	50 to 100%	–	–
Nc1c(F)ccc(NC(=O)c2cc(NC(=O)[C@H]3[C@H](c4ccc(Cl)c(Br)c4)C3(Cl)Cl)ccc2Cl)c1F (relative stereo) [F338, N-(3-Amino-2,4-difluorophenyl)-5-(trans-3-(3-bromo-4-chlorophenyl)-2,2-dichlorocyclopropane-1-carboxamido)-2-chlorobenzamide]	50 to 100%	50 to 100%	–	–
Nc1ccc([C@H]2[C@H](C(=O)Nc3ccc(Cl)c(C(=O)Nc4ccc(F)cc4)c3)C2(Cl)Cl)cc1 (relative stereo) [F425, 5-(trans-3-(4-aminophenyl)-2,2-dichlorocyclopropane-1-carboxamido)-2-chloro-N-(4-fluorophenyl)benzamide]	–	–	50 to 100%	50 to 100%
O=C(Nc1ccc2c(c1)C(=O)NC2=O)c1cc(NC(=O)[C@H]2[C@H](c3cc(Cl)cc(Cl)c3)C2(Cl)Cl)ccc1Cl (relative stereo) [F439, trans-2-Chloro-5-(2,2-dichloro-3-(3,5-dichlorophenyl)cyclopropane-1-carboxamido)-N-(1,3-dioxoisoindolin-5-yl)benzamide]	–	–	50 to 100%	50 to 100%
O=C(Nc1ccc(-c2ncco2)cc1)c1cc(NC(=O)[C@H]2[C@H](c3cc(Cl)cc(Cl)c3)C2(Cl)Cl)ccc1Cl (relative stereo) [F446, trans-2-Chloro-5-(2,2-dichloro-3-(3,5-dichlorophenyl)cyclopropane-1-carboxamido)-N-(4-(oxazol-2-yl)phenyl)benzamide]	–	–	50 to 100%	50 to 100%
O=C(Nc1ccc2c(ccn2Cc2ccccc2)c1)c1cc(NC(=O)[C@H]2[C@H](c3cc(Cl)cc(Cl)c3)C2(Cl)Cl)ccc1Cl (relative stereo) [F458, N-(1-Benzyl-1H-indol-5-yl)-2-chloro-5-(trans)-(2,2-dichloro-3-(3,5-dichlorophenyl)cyclopropane-1-carboxamido)benzamide]	–	–	50 to 100%	50 to 100%
O=C(Nc1ccc2[nH]c(C(F)(F)F)cc2c1)c1cc(NC(=O)[C@H]2[C@H](c3cc(Cl)cc(Cl)c3)C2(Cl)Cl)ccc1Cl (relative stereo) [F465, 2-Chloro-5-(trans)-(2,2-dichloro-3-(3,5-dichlorophenyl)cyclopropane-1-carboxamido)-N-(2-(trifluoromethyl)-1H-indol-5-yl)benzamide]	–	–	50 to 100%	50 to 100%
CN(C(=O)OC(C)(C)C)c1cc(NC(=O)c2cc(NC(=O)[C@H]3[C@H](c4cc(Cl)cc(Cl)c4)C3(Cl)Cl)ccc2Cl)ccc1F (relative stereo) [F471, trans-tert-Butyl (5-(2-chloro-5-(2,2-dichloro-3-(3,5-dichlorophenyl)cyclopropane-1-carboxamido)benzamido)-2-fluorophenyl)(methyl)carbamate]	–	–	50 to 100%	50 to 100%
CC(C)(C)OC(=O)n1ccc2cc(NC(=O)c3cc(NC(=O)[C@H]4[C@H](c5cc(Cl)cc(Cl)c5)C4(Cl)Cl)ccc3Cl)ccc21 (relative stereo) [F484, tert-Butyl 5-(2-chloro-5-(trans)-(2,2-dichloro-3-(3,5-dichlorophenyl)cyclopropane-1-carboxamido)benzamido)-1H-indole-1-carboxylate]	–	–	50 to 100%	50 to 100%
CC(C)(C)OC(=O)Nc1cccc(NC(=O)c2cc(NC(=O)[C@H]3[C@H](c4cc(Cl)cc(Cl)c4)C3(Cl)Cl)ccc2Cl)n1 (relative stereo) [F505, tert-Butyl (6-(2-chloro-5-(trans-2,2-dichloro-3-(3,5-dichlorophenyl)cyclopropane-1-carboxamido)benzamido)pyridin-2-yl)carbamate]	–	–	50 to 100%	50 to 100%
O=C(Nc1ncc(F)cc1F)c1cc(NC(=O)[C@H]2[C@H](c3cc(Cl)cc(C(F)F)c3)C2(Cl)Cl)ccc1Cl (relative stereo) [F584, 2-Chloro-5-(trans-2,2-dichloro-3-(3-chloro-5-(difluoromethyl)phenyl)cyclopropane-1-carboxamido)-N-(3,5-difluoropyridin-2-yl)benzamide]	–	–	50 to 100%	50 to 100%
O=C(Nc1ccc(F)cc1)c1cc(NC(=O)[C@H]2[C@H](c3cc(F)cc(Cl)c3)C2(Cl)Cl)ccc1Cl (relative stereo) [PF1, trans-2-Chloro-5-(2,2-dichloro-3-(3-chloro-5-fluorophenyl)cyclopropane-1-carboxamido)-N-(4-fluorophenyl)benzamide]	–	–	50 to 100%	50 to 100%
CN(C(=O)c1cc(NC(=O)[C@H]2[C@H](c3cc(F)cc(Cl)c3)C2(Cl)Cl)ccc1Cl)c1ccc(F)cc1 (relative stereo) [PF2, trans-2-Chloro-5-(2,2-dichloro-3-(3-chloro-5-fluorophenyl)cyclopropane-1-carboxamido)-N-(4-fluorophenyl)-N-methylbenzamide]	–	–	50 to 100%	50 to 100%
CN(C(=O)c1cc(NC(=O)[C@H]2[C@H](c3cc(Cl)cc(Cl)c3)C2(Br)Br)ccc1Cl)c1ccc(F)cc1 (relative stereo) [PF7, trans-2-Chloro-5-(2,2-dibromo-3-(3,5-dichlorophenyl)cyclopropane-1-carboxamido)-N-(4-fluorophenyl)-N-methylbenzamide]	–	–	50 to 100%	50 to 100%
